Source: patent publication US11426397B2, “Piperidinyl- and piperazinyl-substituted heteroaromatic carboxamides as modulators of GPR6” (TAKEDA PHARMACEUTICAL COMPANY LIMITED, priority 2017, dated 2022)

These compounds were tested against T1, GPR6 receptor expressed in CHO-K1 cells (Homo sapiens, UniProt P46095) (assay: In vitro inhibition of cAMP (EC50), cell-based HTRF cAMP assay). Details: inhibition of constitutive cAMP activity of GPR6 in CHO-K1 cells.
T1 construct: expressed in transfected cells
T1 sequence (P46095 whole entry): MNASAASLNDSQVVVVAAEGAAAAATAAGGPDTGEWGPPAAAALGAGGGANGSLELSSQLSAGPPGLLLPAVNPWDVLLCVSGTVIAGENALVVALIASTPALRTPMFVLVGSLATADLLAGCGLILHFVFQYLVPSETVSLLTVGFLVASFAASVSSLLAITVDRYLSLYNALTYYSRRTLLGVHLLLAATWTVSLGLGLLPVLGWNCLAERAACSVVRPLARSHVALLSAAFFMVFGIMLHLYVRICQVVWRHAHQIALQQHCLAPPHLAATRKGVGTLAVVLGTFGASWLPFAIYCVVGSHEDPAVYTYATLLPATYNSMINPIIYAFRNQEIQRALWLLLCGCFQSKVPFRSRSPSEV
Procedure: I. In Vitro Inhibition of cAMP (EC50)
This cell based assay measures the ability of test compounds to inhibit the constitutive cAMP activity of GPR6 receptor expressed in CHO-K1 cells. CHO cells are stably expressed with GPR6 receptor, whose expression is controlled by a tetracycline inducible element. The cells were cultured in medium containing F12K, 10% FBS, 1% Penn/Strep, 200 μg/mL Hygromycin. GPR6 receptor expression is induced for 20 hours with 2 μg/mL doxycycline (Sigma D9891) in growth media. After addition of doxycycline, the cells are plated at a density of 450-750 cells per well in 96-well half-volume black tissue culture plates (Costar) and placed in an incubator (37° C., 5% CO2) for 20 hours prior to cAMP assays.
Culture media is removed from the cells and they are washed with 50 μL/well of Ringer's Buffer (MgCl2 0.047 mg/mL, NaH2PO4 0.18 mg/mL, Na2HPO4 0.1 mg/mL, KCl 0.34 mg/mL, NaHCO3 1.26 mg/mL, D-glucose 1.8 mg/mL, NaCl 7 mg/mL; pH=7.4). The test compounds are suspended in DMSO, diluted in Ringer's Buffer containing 0.5% fatty acid free BSA plus 300 μM IBMX, and incubated on the cells for 45 minutes at 37° C. and 5% CO2. After incubation, the cells are conditioned for 10 minutes at room temp with Eu-cAMP tracer solution from a Perkin Elmer Lance HTRF Ultra cAMP assay kit (TRF0263). Then ULight™-anti-cAMP solution from the Lance HTRF kit is added and incubated on a shaker at room temp for 1 hour prior to HTRF detection in a Perkin Elmer Envision plate reader. EC50 curves are generated with a four-parameter logistic equation using GraphPad Prism 5.03.
Table 1 lists biological assay data (in vitro inhibition of cAMP) for some of the compounds shown in the examples, where larger pEC50 values represent higher activity or potency. All of the compounds shown in Table 1 were tested in accordance with a cell-based assay which measures the ability of test compounds to inhibit the constitutive cAMP activity of GPR6 receptor expressed in CHO-K1 cells (reported as pEC50). The assay is described in the specification under the heading “In vitro inhibition of cAMP (EC50).”

SMILES | pEC50, in vitro inhibition of cAMP
CS(=O)(=O)c1ccc(N2CCC(Oc3ccc(F)cc3F)CC2)c(NC(=O)c2cnn3c2OCCCC3)c1 [Example 38, N-(2-(4-(2,4-difluorophenoxy)piperidin-1-yl)-5-(methylsulfonyl)phenyl)-5,6,7,8-tetrahydropyrazolo[5,1-b][1,3]oxazepine-3-carboxamide] | 6.8
COc1nc(C)ccc1C(=O)Nc1cc(C#N)c(F)cc1N1CCC(Oc2ccc(F)cc2F)CC1 [Example 39, N-(5-cyano-2-(4-(2,4-difluorophenoxy)piperidin-1-yl)-4-fluorphenyl)-2-methoxy-6-methylnicotinamide] | 7.3
COc1ncccc1C(=O)Nc1cnc(C)cc1N1CCC(Oc2ccc(C#N)cc2F)CC1 [Example 40, N-(4-(4-(4-cyano-2-fluorophenoxy)piperidin-1-yl)-6-methylpyridin-3-yl)-2-methoxynicotinamide] | 6.2
Cc1cc(C(=O)Nc2cc(C#N)ccc2N2CCC(Oc3ccc(F)cc3F)CC2)no1 [Example 41, N-(5-cyano-2-(4-(2,4-difluorophenoxy)piperidin-1-yl)phenyl)-5-methylisoxazole-3-carboxamide] | 6.4
Cn1ccc(C(=O)Nc2cc(C#N)ccc2N2CCC(Oc3ccc(F)cc3F)CC2)n1 [Example 42, N-(5-cyano-2-(4-(2,4-difluorophenoxy)piperidin-1-yl)phenyl)-1-methyl-1H-pyrazole-3-carboxamide] | 6.9
Cc1nc(C(=O)Nc2cc(C#N)ccc2N2CCC(Oc3ccc(F)cc3F)CC2)co1 [Example 43, N-(5-cyano-2-(4-(2,4-difluorophenoxy)piperidin-1-yl)phenyl)-2-methyloxazole-4-carboxamide] | 6.1
N#Cc1ccc(N2CCC(Oc3ccc(F)cc3F)CC2)c(NC(=O)c2cnccn2)c1 [Example 44, N-(5-cyano-2-(4-(2,4-difluorophenoxy)piperidin-1-yl)phenyl)pyrazine-2-carboxamide] | 6.2
Cn1cnc(C(=O)Nc2cc(C#N)ccc2N2CCC(Oc3ccc(F)cc3F)CC2)c1 [Example 45, N-(5-cyano-2-(4-(2,4-difluorophenoxy)piperidin-1-yl)phenyl)-1-methyl-1H-imidazole-4-carboxamide] | 6.6
COc1ccsc1C(=O)Nc1cc(C#N)ccc1N1CCC(Oc2ccc(F)cc2F)CC1 [Example 46, N-(5-cyano-2-(4-(2,4-difluorophenoxy)piperidin-1-yl)phenyl)-3-methoxythiophene-2-carboxamide] | 7.2
COc1cscc1C(=O)Nc1cc(C#N)ccc1N1CCC(Oc2ccc(F)cc2F)CC1 [Example 47, N-(5-cyano-2-(4-(2,4-difluorophenoxy)piperidin-1-yl)phenyl)-4-methoxythiophene-3-carboxamide] | 7.2
N#Cc1ccc(N2CCC(Oc3ccc(F)cc3F)CC2)c(NC(=O)c2cc3cccn3cn2)c1 [Example 48, N-(5-cyano-2-(4-(2,4-difluorophenoxy)piperidin-1-yl)phenyl)pyrrolo[1,2-c]pyrimidine-3-carboxamide] | 6.8
N#Cc1ccc(N2CCC(Oc3ccc(F)cc3F)CC2)c(NC(=O)c2ncc(F)cc2F)c1 [Example 49, N-(5-cyano-2-(4-(2,4-difluorophenoxy)piperidin-1-yl)phenyl)-3,5-difluoropicolinamide] | 6.5
Cn1ccnc1C(=O)Nc1cc(C#N)ccc1N1CCC(Oc2ccc(F)cc2F)CC1 [Example 50, N-(5-cyano-2-(4-(2,4-difluorophenoxy)piperidin-1-yl)phenyl)-1-methyl-1H-imidazole-2-carboxamide] | 6.2
Cc1csc(C(=O)Nc2cc(C#N)ccc2N2CCC(Oc3ccc(F)cc3F)CC2)n1 [Example 51, N-(5-cyano-2-(4-(2,4-difluorophenoxy)piperidin-1-yl)phenyl)-4-methylthiazole-2-carboxamide] | 6.8
N#Cc1ccc(N2CCC(Oc3ccc(F)cc3F)CC2)c(NC(=O)c2ccc(O)nn2)c1 [Example 52, N-(5-cyano-2-(4-(2,4-difluorophenoxy)piperidin-1-yl)phenyl)-6-hydroxypyridazine-3-carboxamide] | 6.2
N#Cc1ccc(N2CCC(Oc3ccc(F)cc3F)CC2)c(NC(=O)c2cnn3c2OCCC3)c1 [Example 53, N-(5-cyano-2-(4-(2,4-difluorophenoxy)piperidin-1-yl)phenyl)-6,7-dihydro-5H-pyrazolo[5,1-b][1,3]oxazine-3-carboxamide] | 6.3
Cc1cccc(C(=O)Nc2cc(C#N)cnc2N2CCC(Oc3ccc(F)cc3F)CC2)n1 [Example 54, N-(5-cyano-2-(4-(2,4-difluorophenoxy)piperidin-1-yl)pyridin-3-yl)-6-methylpicolinamide] | 7.4
N#Cc1cnc(N2CCC(Oc3ccc(F)cc3F)CC2)c(NC(=O)c2cc(Cl)ccn2)c1 [Example 55, 4-chloro-V-(5-cyano-2-(4-(2,4-difluorophenoxy)piperidin-1-yl)pyridin-3-yl)picolinamide] | 7.3
COc1cc(F)ccc1C(=O)Nc1cc(C#N)cnc1N1CCC(Oc2ccc(F)cc2F)CC1 [Example 56, N-(5-cyano-2-(4-(2,4-difluorobenoxy)piperidin-1-yl)pyridin-3-yl)-4-fluoro-2-methoxybenzamide] | 7.2
Cc1ccc(F)c(C(=O)Nc2cc(C#N)cnc2N2CCC(Oc3ccc(F)cc3F)CC2)n1 [Example 57, N-(5-cyano-2-(4-(2,4-difluorophenoxy)piperidin-1-yl)pyridin-3-yl)-3-fluoro-6-methylpicolinamide] | 7.3
Cn1cccc(C(=O)Nc2cc(C#N)cnc2N2CCC(Oc3ccc(F)cc3F)CC2)c1=O [Example 58, N-(5-cyano-2-(4-(2,4-difluorophenoxy)piperidin-1-yl)pyridin-3-yl)-1-methyl-2-oxo-1,2-dihydropyridine-3-carboxamide] | 7.4
Cc1cccnc1C(=O)Nc1cc(C#N)cnc1N1CCC(Oc2ccc(F)cc2F)CC1 [Example 59, N-(5-cyano-2-(4-(2,4-difluorophenoxy)piperidin-1-yl)pyridin-3-yl)-3-methylpicolinamide] | 7.3
COc1nn(C)cc1C(=O)Nc1cc(C#N)cnc1N1CCC(Oc2ccc(F)cc2F)CC1 [Example 60, N-(5-cyano-2-(4-(2,4-difluorophenoxy)piperidin-1-yl)pyridin-3-yl)-3-methoxy-1-methyl-1H-pyrazole-4-carboxamide] | 7.3
N#Cc1cnc(N2CCC(Oc3ccc(F)cc3F)CC2)c(NC(=O)c2cnccc2O)c1 [Example 61] | 6.4
COc1ccncc1C(=O)Nc1ccc(C)nc1N1CCC(Oc2ccc(F)cc2F)CC1 [Example 62, N-(2-(4-(2,4-difluorophenoxy)piperidin-1-yl)-6-methylpyridin-3-yl)-4-methoxynicotinamide] | 7.3
COc1ncccc1C(=O)Nc1cc(C#N)cnc1N1CCC(Oc2ccc(F)cc2F)CC1 [Example 63, N-(5-cyano-2-(4-(2,4-difluorophenoxy)piperidin-1-yl)pyridin-3-yl)-2-methoxynicotinamide] | 7.1
COc1ncccc1C(=O)Nc1cc(CNC(C)=O)cnc1N1CCC(Oc2ccc(F)cc2F)CC1 [Example 64, N-(5-(acetamidomethyl)-2-(4-(2,4-difluorophenoxy)piperidin-1-yl)pyridin-3-yl)-2-methoxynicotinamide] | 7.0
COCc1cnc(N2CCC(Oc3ccc(F)cc3F)CC2)c(NC(=O)c2cccnc2OC)c1 [Example 65, N-(2-(4-(2,4-difluorophenoxy)piperidin-1-yl)-5-(methoxymethyl)pyridin-3-yl)-2-methoxynicotinamide] | 7.3
N#Cc1cnc(N2CCC(Oc3ccc(F)cc3F)CC2)c(NC(=O)c2ccccn2)c1 [Example 66, N-(5-cyano-2-(4-(2,4-difluorophenoxy)piperidin-1-yl)pyridin-3-yl)picolinamide] | 7.3
Cc1ccc(Cl)c(OC2CCN(c3ncc(C#N)cc3NC(=O)c3ccccn3)CC2)c1 [Example 68, N-(2-(4-(2-chloro-5-methylphenoxy)piperidin-1-yl)-5-cyanopyridin-3-yl)picolinamide] | 6.6

Same assay, conditions: inhibition of constitutive cAMP activity of GPR6 in CHO-K1 cells; read-out: pEC50, in vitro inhibition of cAMP (converted)

SMILES | EC50
N#Cc1cnc(N2CCC(Cc3ccccc3)CC2)c(NC(=O)c2ccccn2)c1 [Example 67, N-(2-(4-benzylpiperidin-1-yl)-5-cyanopyridin-3-yl)picolinamide] | 100 nM
